Holding throughout (test): NCI anticancer screen, dose series, 48 h
Assay [1] deals with 786-0 renal.
Assay [2] relates to COLO 205 colon.
In assay [3] the test system is HT29 colon.
Assay [4] deals with IGROV1 ovarian.
For assay [5], the system named is K-562 leukemia.
The test system of assay [6] is KM12 colon.
Assay [7] relates to MALME-3M melanoma.
Assay [8] deals with MDA-MB-231 breast.
Assay [9] has as its system NCI-H23 lung.
Assay [10] relates to OVCAR-8 ovarian.
For assay [11], the system named is SK-MEL-5 melanoma.
In assay [12] the test system is SR leukemia.
For assay [13], the system named is UACC-257 melanoma.
The test system of assay [14] is UACC-62 melanoma.
Assay [15] relates to EKVX NSCLC.
Assay [16] concerns HCC-2998 colon.
Assay [17] deals with OVCAR-4 ovarian.
The subject of assay [18] is SK-OV-3 ovarian.

Several values for one entry are separate records, joined by “and”; a condition that tells them apart may be missing. Equal entries are not always repeated.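 48-hour exposure; five concentrations; linearly interpolated endpoints. The concentration for 50% growth inhibition is given as GI50. TGI denotes the concentration required for complete inhibition of growth.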

As to `CC(=O)OCC1OC(n2c3c(c(-c4ccc(C)cc4)c(C#N)c2=S)C(=O)CC(C)(C)C3)C(OC(C)=O)C(OC(C)=O)C1OC(C)=O` (stereo unspecified), the TGI in assay [1] was > 100 µM; in assay [2] it was > 100 µM; in assay [3], > 100 µM; in assay [4], > 100 µM; in assay [5], 95.3 µM; in [6] it was > 100 µM. The TGI in [7] is > 100 µM; in [8] it was 62.1 µM; in [9] it was > 100 µM; in assay [10], > 100 µM; in [11], > 100 µM; in [12], > 100 µM. The TGI in assay [13] is 38.3 µM; in [14], 44.4 µM.

On to `COc1ccc(/C=C/C(=O)c2cc(OC)cc(OC)c2)cc1`, for which the TGI stood at 11.2 µM in assay [1]; 16.8 µM in assay [2]; 20 µM in assay [15]; 16.3 µM in assay [16]; 4.96 µM in assay [3]; 25.7 µM in assay [4]. Moreover, the TGI in assay [5] is > 100 µM; in assay [6], 2.23 µM; in assay [7], 27.8 µM; in [8] it was > 28.3 µM; in assay [9] it was 8.53 µM; in assay [17] it was 18 µM. In addition, the TGI in [10] was determined as 18.3 µM; in [11], 24.2 µM; in assay [18] it was 27.5 µM; in assay [13] it was 26.9 µM; in assay [14] it was 16.9 µM.

Turning to `CN1CCN(Cn2nc(COc3ccccc3Cl)n(/N=C/c3ccc(-c4ccc(Cl)cc4Cl)o3)c2=S)CC1`, the TGI in [1] was 32.8 µM; in assay [15] it was > 100 µM; in [16], 33.8 µM; in [3] it was 42.9 µM; in assay [4], > 100 µM; in [5], 89.9 µM. Also, the TGI stood at 42.1 µM in [6]; 69.5 µM in assay [8]; 44.8 µM in assay [9]; 45.2 µM in assay [17]; 79.3 µM in [10]; 71.8 µM in assay [11]. In addition, the TGI in [18] was > 100 µM; in assay [12], 51.8 µM; in assay [13], > 100 µM.

Turning to `COC(=O)c1cc2ccc(O)c(O)c2cn1`, the TGI in assay [1] is 19.7 µM; in assay [2], 33.1 µM; in [15], 38.4 µM; in assay [16], > 100 µM; in assay [4] it was 33.2 µM; in assay [5], 8.16 µM. In addition, the TGI in [6] came out at 32 µM; in assay [7] it was 27.5 µM; in assay [8], 25.2 µM; in assay [9], 32 µM; in assay [17], 21.7 µM; in [10] it was 28.6 µM. In addition, the TGI in [11] is 28.2 µM; in assay [18] it was 92.3 µM; in assay [13], 29.6 µM; in assay [14], 6.16 µM and 30.9 µM. Further, the GI50 in [16] was > 100 µM; in assay [14] it was 14.2 µM.

Turning to `CC(CN1NC12CCCC2)N1NC12CCCC2` (stereo unspecified), the TGI in assay [1], in assay [2], in assay [15], in [16], in [3] and in [4] was > 100 µM throughout. In addition, the TGI in assay [5], in assay [6], in [7], in [8], in assay [9] and in assay [17] was > 100 µM throughout. For the same compound, the TGI in [10], in assay [11], in assay [18], in assay [13] and in assay [14] was > 100 µM throughout.

For `CC1(C)CNC(=O)C2(CCCO2)CNC(C)(C)CNC(=O)C2(CCCO2)CN1` (stereo unspecified), the TGI in assay [1], in assay [2], in [16], in assay [3], in assay [4] and in assay [5] was > 10 µM in each case. The TGI in assay [6], in [7], in assay [8], in assay [9], in assay [17] and in [10] was > 10 µM in each case. Also, the TGI in [11], in assay [18], in [12], in assay [13] and in [14] was > 10 µM in each case.

Turning to `NC(N)=N/N=C\c1c(-c2cccc([N+](=O)[O-])c2)nc2sccn12`, the TGI was > 100 µM in assay [1]; 14.5 µM in assay [2]; 56.2 µM in assay [15]; 5.38 µM in assay [16]; 4.23 µM in assay [3]; 33.6 µM in [4]. Moreover, the TGI was > 100 µM in assay [5]; 3.66 µM in [6]; 51.4 µM in assay [7]; 5.01 µM in assay [8]; 32.1 µM in [9]; 3.78 µM in [17]. The TGI in assay [11] amounted to 36.1 µM; in assay [13], 48.8 µM; in [14], 79 µM.

In the case of `Cc1cn([C@@H]2O[C@H](CO[Si](C)(C)C(C)(C)C)[C@]3(O[C@H]3C(=O)NO)[C@H]2O[Si](C)(C)C(C)(C)C)c(=O)[nH]c1=O`, the TGI in [1] worked out at 2.87 µM; in assay [15], 3.59 µM; in assay [16], 2.97 µM; in assay [3], 2.92 µM; in [4] it was 3.19 µM; in [5], 6.48 µM. In addition, the TGI in [6] amounted to 3.71 µM; in assay [7], 5.07 µM; in assay [8], 4.19 µM; in [9], 3.66 µM; in assay [17] it was 3.77 µM; in [10], 3.53 µM. In addition, the TGI was 3.58 µM in assay [11], 3.66 µM in [18], 6.92 µM in assay [13] and 3.38 µM in assay [14].

As for `O=C(CCC(=O)c1ccsc1)c1ccsc1`, the TGI in assay [1], in assay [2], in [16], in assay [4], in assay [6] and in assay [7] was > 100 µM each time. Further, the TGI in [8], in assay [9], in [17], in [10], in assay [11] and in assay [18] was > 100 µM each time. Also, the TGI in [12], in [13] and in assay [14] was > 100 µM in each case.

For the compound `COCN1C(=O)[C@@H]2CCCN2C(=O)c2cc(OC)c(Cc3ccccc3)cc21`, the TGI in assay [1], in assay [15], in [3], in assay [4], in [6] and in assay [7] was > 100 µM in each case. Moreover, the TGI in assay [8], in assay [9], in assay [17], in [10], in [18] and in [13] was > 100 µM each time. For the same compound, in assay [14], the TGI is > 100 µM.

In the case of `COc1ccc2c(-c3csc(-c4c[nH]c5ccc(Br)cc45)n3)c[nH]c2c1`, the TGI in assay [1], in [2], in assay [15], in assay [3], in [4] and in assay [5] was > 100 µM in each case. The TGI was > 100 µM in assay [6]; 43.9 µM in assay [7]; 83.1 µM in assay [8]; > 100 µM in assay [9]; > 100 µM in assay [17]; > 100 µM in [10]. The TGI in assay [11], in assay [13] and in [14] was > 100 µM each time.

In the case of `O=C1CSC(c2c[nH]c3ccccc23)N1c1cccc(Cl)c1` (stereo unspecified), the TGI in assay [1] was 47.1 µM; in [2], > 100 µM; in assay [15], > 100 µM; in assay [16] it was > 100 µM; in assay [3], > 100 µM; in assay [4], > 100 µM. The TGI in assay [5] was > 100 µM; in assay [6], > 100 µM; in assay [8], 80.2 µM; in assay [9] it was > 100 µM; in assay [17] it was > 100 µM; in assay [10] it was > 100 µM. Besides, the TGI in [11], in assay [18], in [13] and in assay [14] was > 100 µM throughout.

Take `COC(=NC(C)C)NC(C)C`: the TGI in assay [1], in assay [2], in assay [15], in [16], in assay [4] and in [5] was > 100 µM in each case. Moreover, the TGI in [8], in assay [9], in assay [10], in assay [11], in [18] and in [12] was > 100 µM each time. Moreover, the TGI in assay [14] was > 100 µM.

As for `Clc1ccc(/C=C/c2nc(-c3ccccc3)cn3c2nc2ccccc23)cc1Cl`, the TGI in assay [1], in assay [2], in assay [15], in [16], in assay [3] and in assay [4] was > 100 µM in each case. Moreover, the TGI in assay [5], in assay [6], in [8], in [9], in assay [17] and in assay [11] was > 100 µM in each case. For the same compound, the TGI in [18], in assay [12], in assay [13] and in assay [14] was > 100 µM throughout.

Turning to `COC(=O)C(Cc1ccccc1)NC(=O)CSc1nnc(COc2ccc(Cl)cc2)n1-c1ccccc1` (stereo unspecified), the TGI in [1] is 29.8 µM; in assay [2], 41.8 µM; in assay [16], 31.8 µM; in assay [3], 53.2 µM; in assay [4], > 100 µM; in assay [5], > 100 µM. Moreover, the TGI in assay [6] is > 100 µM; in [7], 42.7 µM; in [8], 41.8 µM; in assay [9], 53.3 µM; in assay [17] it was 64.9 µM; in assay [11], 31.4 µM. Further, the TGI in assay [18] is 63 µM; in [12], > 100 µM; in assay [13] it was 26.2 µM; in assay [14], 27.9 µM.

`C/C=C1/CC(C(=O)OC)N(C(=O)OCc2ccccc2)C1=S` (stereo unspecified): the TGI in assay [1], in [2], in assay [15], in assay [16], in assay [3] and in assay [4] was > 100 µM in each case. The TGI in assay [5], in assay [6], in assay [7], in [8], in assay [9] and in [17] was > 100 µM each time. Moreover, the TGI in assay [10], in assay [11], in assay [18], in assay [13] and in [14] was > 100 µM throughout.

For `CCCCCCCCCCCCCCCCOCC(COP(=O)(O)OCC1OC(n2cc(CC)c(=O)[nH]c2=O)CC1O)OC(=O)CCCCCCCCCCCCCCC` (stereo unspecified), the TGI in [1], in [2], in [15], in assay [16], in assay [3] and in assay [4] was > 100 µM throughout. Also, the TGI in assay [5], in assay [6], in assay [8], in assay [9], in assay [17] and in [10] was > 100 µM in each case. Besides, the TGI in assay [18], in assay [12], in assay [13] and in assay [14] was > 100 µM throughout.
